Assay results taken from publication PMC10482825 (Scientific Reports, 2023).

How the values were obtained:
[1] = system: B. subtilis; experiment: Radial diffusion assay; type: cell-based, Bacillus subtilis (ATCC, 11774); conditions: 5 µl of 500 µM per 3 mm well, 37 °C, mean ± SD
Excerpt: (§1) The microbial strains used in this study were Bacillus subtilis (ATCC, 11774), Candida albicans (TIMM, 1768), Enterococcus faecalis (ATCC, 33186), Escherichia coli (ATCC, 11775), Klebsiella pneumoniae (ATCC, 13883), Methicillin-resistant Staphylococcus aureus (ATCC, BAA-41), Pseudomonas aeruginosa (ATCC, 10145), Salmonella enterica (ATCC, 14028), Serratia marcescens (ATCC, 13880), Staphylococcus aureus (ATCC, 25923) and Vibrio parahaemolyticus (ATCC, 17802). All microbial strains were cultivated overnight at 37 °C and 200 rpm, then subcultured and incubated for 3 h under the same incubation conditions to obtain the mid-logarithmic growth phase. The cultivated cells were washed twice with 10 mM Tris–HCl containing 5 mM D-glucose at pH 7.4 and suspended in the same buffer to be used in different assays, as previously described.
(§2) The antimicrobial activity spectra of the selected cryptides were screened against all the mentioned microbial pathogens, except V. parahaemolyticus, by radial diffusion assay as previously described, with slight modifications. […] The plates were then incubated for 18 h, and the antimicrobial activities were measured in the absolute unit (AU), as previously described. […]
(§3) plate. The plates were then incubated for 12 h at 37 °C and antimicrobial activities were measured in the term of absolute unit (A.U). […]

[2] = system: S. aureus; experiment: Radial diffusion assay; type: cell-based, Staphylococcus aureus (ATCC, 25923); conditions: 5 µl of 500 µM per 3 mm well, 37 °C, mean ± SD
Excerpt: as §1, §2, §3

[3] = system: E. faecalis; experiment: Radial diffusion assay; type: cell-based, Enterococcus faecalis (ATCC, 33186); conditions: 5 µl of 500 µM per 3 mm well, 37 °C, mean ± SD
Excerpt: as §1, §2, §3

[4] = system: E. coli K-1; experiment: Radial diffusion assay; type: cell-based, Escherichia coli (ATCC, 11775); conditions: 5 µl of 500 µM per 3 mm well, 37 °C, mean ± SD
Excerpt: as §1, §2, §3

[5] = system: K. pneumoniae; experiment: Radial diffusion assay; type: cell-based, Klebsiella pneumoniae (ATCC, 13883); conditions: 5 µl of 500 µM per 3 mm well, 37 °C, mean ± SD
Excerpt: as §1, §2, §3

[6] = system: S. enterica; experiment: Radial diffusion assay; type: cell-based, Salmonella enterica (ATCC, 14028); conditions: 5 µl of 500 µM per 3 mm well, 37 °C, mean ± SD
Excerpt: as §1, §2, §3

[7] = system: MRSA; experiment: Radial diffusion assay; type: cell-based, Methicillin-resistant Staphylococcus aureus (ATCC, BAA-41); conditions: 5 µl of 500 µM per 3 mm well, 37 °C, mean ± SD
Excerpt: as §1, §2, §3

[8] = system: S. marcescens; experiment: Radial diffusion assay; type: cell-based, Serratia marcescens (ATCC, 13880); conditions: 5 µl of 500 µM per 3 mm well, 37 °C, mean ± SD
Excerpt: as §1, §2, §3

[9] = system: S. epidermidis; experiment: Radial diffusion assay; type: cell-based; conditions: 5 µl of 500 µM per 3 mm well, 37 °C, mean ± SD
Excerpt: The antimicrobial activity spectra of the selected cryptides were screened against all the mentioned microbial pathogens, except V. parahaemolyticus, by radial diffusion assay as previously described, with slight modifications. We aimed to test different categories of pathogens on the WHO global priority due to their growing resistance to the available antibiotics such as P. aeruginosa, E. coli and K. pneumoniae in the critical category and Salmonella ssp. and S. aureus in the high category. Briefly, a total of 4 × 10^6 CFU of each pathogen was inoculated in 10 mL of an underlay agarose gel [0.03% w/v tryptone soy broth (TSB) medium, 1% w/v agarose and 0.02% v/v Tween 20 in 10 mM Tris–HCl] that was then poured into a 100-mm petri dish. After agarose solidification, 3 mm-diameter wells were punched by a sterile cork borer and 5 µl of 500 µM stock solution from each cryptide was added to each well. Melittin and acidified water were used as positive and negative controls, respectively. […] The plates were then incubated for 18 h, and the antimicrobial activities were measured in the absolute unit (AU), as previously described. […]
as §3

[10] = system: P. aeruginosa; experiment: Radial diffusion assay; type: cell-based, Pseudomonas aeruginosa (ATCC, 10145); conditions: 5 µl of 500 µM per 3 mm well, 37 °C, mean ± SD
Excerpt: as §1, §2, §3

[11] = system: C. albicans; experiment: Radial diffusion assay; type: cell-based, Candida albicans (TIMM, 1768); conditions: 5 µl of 500 µM per 3 mm well, 37 °C, mean ± SD
Excerpt: as §1, §2, §3

[12] = system: Caco-2; type: cell-based, human; conditions: 24 h, serum-free medium, MTT, 37 °C, 5% CO2; mean ± SD
Description: (§4) The used mammalian cell lines in our study were colorectal adenocarcinoma (Caco2, ATCC-HTB-37), colorectal carcinoma (HCT 116, ATCC-CCL-247), lung carcinoma (A549, ATCC- CCL-185), cervical cancer cells (HeLa, ATCC-CCL-2), neuroblastoma (SH-SY5Y, ATCC- CRL-2266), rhabdomyosarcoma (RD, ATCC- CCL-136) and human embryonic kidney cells (HEK 293, ATCC- CRL-1573). All the cells were maintained into Dulbecco’s Modified Eagle’s Medium (DMEM) supplemented with 10% heat-inactivated fetal bovine serum, 2 mM L-Glutamine, 100 U/ml penicillin–streptomycin (Pen/Strep) at 37 °C in 5% CO2 humidified incubator.
(§5) First, the cytotoxic effect of 24 h serum deprivation on all the selected cell lines was evaluated by MTT assay, following standard protocols. Briefly, cells were seeded and maintained at 37 °C and 5% CO2 in 24-well plates until they reached 75–80% confluency (zero time). Following washing twice with 1X PBS, cells were incubated in a serum-free medium for 24 h, under the same incubation conditions. The cell viability percentages were calculated and compared to zero time as 100% viability to nullify any possible effects of serum deprivation. Thence, the cell viability percentage of each cell line in response to 24 h treatment with different concentrations of each cryptide in serum-free medium was calculated. […] All the measured cell viability percentages were normalised against the corresponding negative controls.

[13] = system: HCT 116; type: cell-based, human; conditions: 24 h, serum-free medium, MTT, 37 °C, 5% CO2; mean ± SD
Description: as §4, §5

[14] = system: HeLa; type: cell-based, human; conditions: 24 h, serum-free medium, MTT, 37 °C, 5% CO2; mean ± SD
Description: as §4, §5

[15] = type: cell-based; conditions: 24 h, serum-free medium, MTT, 37 °C, 5% CO2; mean ± SD; read-out: IC50 (µM) A459
Description: as §4, §5

[16] = system: RD; type: cell-based; conditions: 24 h, serum-free medium, MTT, 37 °C, 5% CO2; mean ± SD
Description: as §4, §5

[17] = system: SH-SY5Y; type: cell-based; conditions: 24 h, serum-free medium, MTT, 37 °C, 5% CO2; mean ± SD
Description: as §4, §5

[18] = system: HEK-293; experiment: MTT cytotoxicity on normal cells; type: cell-based, human; conditions: 25 µM (highest tested concentration), 24 h, serum-free medium
Description: as §4, §5

[19] = system: bacterial pathogens; conditions: salt tolerance; cited from earlier work
Description: For example, Pleurocidin is an AMP isolated from a marine flatfish Pseudopleuronectes americanus (Winter flounder) and has been reported to be active against bacterial pathogens at high NaCl concentrations, up to 625 mM[15]. This potential salt-insensi ...

Compound	Antimicrobial activity (inhibition zone) B. subtilis [1]	Antimicrobial activity (inhibition zone) S. aureus [2]	Antimicrobial activity (inhibition zone) E. faecalis [3]	Antimicrobial activity (inhibition zone) E. coli K-1 [4]	Antimicrobial activity (inhibition zone) K. pneumoniae [5]	Antimicrobial activity (inhibition zone) S. enterica [6]	Antimicrobial activity (inhibition zone) MRSA [7]	Antimicrobial activity (inhibition zone) S. marcescens [8]	Antimicrobial activity (inhibition zone) S. epidermidis [9]	Antimicrobial activity (inhibition zone) P. aeruginosa [10]	Antifungal activity (inhibition zone) C. albicans [11]	IC50 [12]	IC50 [13]	IC50 [14]	IC50 [15]	IC50 [16]	IC50 [17]	Cell death of HEK-293 [18]	NaCl concentration up to which active against bacterial pathogens [19]
CC[C@H](C)[C@H](NC(=O)CN)C(=O)NCC(=O)N[C@@H](C)C(=O)N[C@H](C(=O)N[C@@H](CC(C)C)C(=O)N[C@@H](CCCCN)C(=O)N[C@H](C(=O)N[C@@H](CC(C)C)C(=O)N[C@H](C(=O)N[C@H](C(=O)NCC(=O)N[C@@H](CC(C)C)C(=O)N1CCC[C@H]1C(=O)N[C@@H](C)C(=O)N[C@@H](CC(C)C)C(=O)N[C@H](C(=O)N[C@@H](CO)C(=O)N[C@@H](Cc1c[nH]c2ccccc12)C(=O)N[C@H](C(=O)N[C@@H](CCCCN)C(=O)N[C@@H](CCCNC(=N)N)C(=O)N[C@@H](CCCCN)C(=O)N[C@@H](CCCNC(=N)N)C(=O)N[C@@H](CCC(N)=O)C(=O)N[C@@H](CCC(N)=O)C(N)=O)[C@@H](C)CC)[C@@H](C)CC)[C@@H](C)O)[C@@H](C)O)C(C)C)C(C)C [Melittin, reference compound]	21.8± 3.1 A.U.	41.5 ± 2.5 A.U.	11.8 ± 1.3 A.U.	6.5 ± 0.9 A.U.	11.8 ± 1.3 A.U.	7.8 ± 2 A.U.	11.8 ± 1.3 A.U.	7.7 ± 1 A.U.	10.4 ± 1.2 A.U.	6 ± 0.9 A.U.	14.2 ± 1.4 A.U.	1.2 ± 0.9 µM	2.1 ± 0.2 µM	0.9 ± 0.1 µM	2.3 ± 0.6 µM	2.4 ± 0.5 µM	1.7 ± 1 µM	78.7%	
Pleurocidin (GWGSFFKKAAHVGKHVGKAALTHYL; UniProt P81941 23-47, looked up) [AMP isolated from a marine flatfish Pseudopleuronectes americanus (Winter flounder)]																			up to 625 mM
